In PubChem BioAssay AID248 (DTP/NCI, 2004):
Values joined by “and” are separate entries in the source; they are usually repeats but may differ in a detail not shown here. Identical values can stand only once. Toxic doses and inconclusive results are not listed. Cut-off read from the data, not from the text of the source: active = T/C of 150% or more; inactive = T/C below 125%.

System: L1210 leukemia ip in BDF1 mice, survival T/C
Experiment: NCI In Vivo Anticancer Drug Screen. Data for tumor model L1210 Leukemia (intraperitoneal) in B6D2F1 (BDF1) mice
Details: endpoint: mean survival time, higher = longer survival
Summary of the method: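 Each compound was tested against a transplantable tumor grown in mice. The endpoint was survival, with treated animals benchmarked against vehicle controls as a simple ratio.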

[1] = dose: 25.0 mg/kg/injection, schedule: Q04DX002 (ip), vehicle: Klucel (hydroxypropylcellulose) (HPC)
[2] = dose: 50.0 mg/kg/injection, schedule: Q04DX002 (ip), vehicle: Klucel (hydroxypropylcellulose) (HPC)
[3] = dose: 100.0 mg/kg/injection, schedule: Q01DX009 (ip), vehicle: Klucel (hydroxypropylcellulose) (HPC)
[4] = dose: 100.0 mg/kg/injection, schedule: Q04DX003 (ip), vehicle: saline
[5] = dose: 200.0 mg/kg/injection, schedule: Q01DX009 (ip), vehicle: Klucel (hydroxypropylcellulose) (HPC)
[6] = dose: 200.0 mg/kg/injection, schedule: Q04DX003 (ip), vehicle: saline
[7] = dose: 400.0 mg/kg/injection, schedule: Q04DX003 (ip), vehicle: saline
[8] = dose: 100.0 mg/kg/injection, schedule: Q04DX002 (ip), vehicle: Klucel (hydroxypropylcellulose) (HPC)
[9] = dose: 200.0 mg/kg/injection, schedule: Q04DX002 (ip), vehicle: Klucel (hydroxypropylcellulose) (HPC)
[10] = dose: 400.0 mg/kg/injection, schedule: Q04DX002 (ip), vehicle: Klucel (hydroxypropylcellulose) (HPC)
[11] = dose: 100.0 mg/kg/injection, schedule: Q01DX009 (ip), vehicle: saline with Tween-80
[12] = dose: 200.0 mg/kg/injection, schedule: Q01DX009 (ip), vehicle: saline with Tween-80
[13] = dose: 400.0 mg/kg/injection, schedule: Q01DX009 (ip), vehicle: saline with Tween-80
[14] = dose: 50.0 mg/kg/injection, schedule: Q04DX003 (ip), vehicle: saline with Tween-80
[15] = dose: 100.0 mg/kg/injection, schedule: Q01DX001 (ip), vehicle: saline
[16] = dose: 100.0 mg/kg/injection, schedule: Q04DX003 (ip), vehicle: saline with Tween-80
[17] = dose: 200.0 mg/kg/injection, schedule: Q01DX001 (ip), vehicle: saline
[18] = dose: 200.0 mg/kg/injection, schedule: Q04DX003 (ip), vehicle: saline with Tween-80
[19] = dose: 400.0 mg/kg/injection, schedule: Q01DX001 (ip), vehicle: saline
[20] = dose: 100.0 mg/kg/injection, schedule: Q04DX002 (ip), vehicle: saline
[21] = dose: 200.0 mg/kg/injection, schedule: Q04DX002 (ip), vehicle: saline
[22] = dose: 400.0 mg/kg/injection, schedule: Q04DX002 (ip), vehicle: saline
[23] = dose: 100.0 mg/kg/injection, schedule: Q04DX002 (ip), vehicle: saline with Tween-80
[24] = dose: 200.0 mg/kg/injection, schedule: Q04DX002 (ip), vehicle: saline with Tween-80
[25] = dose: 100.0 mg/kg/injection, schedule: Q04DX003 (ip), vehicle: Klucel (hydroxypropylcellulose) (HPC)
[26] = dose: 200.0 mg/kg/injection, schedule: Q04DX003 (ip), vehicle: Klucel (hydroxypropylcellulose) (HPC)

Measured: T/C

NC(=O)c1cccc(Cl)n1
inactive: dose: 12.5 mg/kg/injection, schedule: Q04DX002 (ip), vehicle: Klucel (hydroxypropylcellulose) (HPC) 92 % of control | [1] 87 % of control | [2] 90 % of control

C=CCN(CC=C)c1ccc(N(CC)CC)cc1
inactive: [3] 86 % of control | [4] 97 % of control | [5] 86 % of control | [6] 105 % of control | [7] 105 % of control

CCCCCCCC(=O)N1CCCCC1C (configuration not stated)
inactive: [8] 103 % of control | [9] 103 % of control | [10] 98 % of control

O=C(CC(CC(=O)c1ccccc1)c1ccncc1)c1ccccc1
inactive: dose: 50.0 mg/kg/injection, schedule: Q01DX001 (ip), vehicle: carboxymethylcellulose (CMC) 95 % of control | dose: 200.0 mg/kg/injection, schedule: Q01DX001 (ip), vehicle: carboxymethylcellulose (CMC) 90 % of control | dose: 400.0 mg/kg/injection, schedule: Q01DX001 (ip), vehicle: carboxymethylcellulose (CMC) 86 % of control

O=C(O)C1C2C=CC(C2)C1C(=O)O (configuration not stated)
inactive: [11] 97 % of control | [12] 96 % of control | [13] 98 % of control

O=C(Nc1ccc(F)cc1)c1ccc(C(=O)Nc2ccc(F)cc2)cc1
inactive: [14] 91 % of control | [15] 100 % of control | [11] 100 % of control | [16] 96 % of control | [17] 96 % of control | [12] 108 % of control | [18] 96 % of control | [19] 102 % of control | [13] 94 % of control

O=[N+]([O-])c1ccccc1C(=Nc1ccccc1)c1c(O)cc(O)cc1O
inactive: dose: 100.0 mg/kg/injection, schedule: Q01DX009 (ip), vehicle: acetone 94 % of control | [4] 96 % of control | dose: 200.0 mg/kg/injection, schedule: Q01DX009 (ip), vehicle: acetone 100 % of control | [6] 101 % of control | [7] 98 % of control

C=NN1CCOC1=O
inactive: [20] 106 % of control | [21] 91 % of control | [22] 111 % of control

O=S(=O)(ON=C(c1ccc(Cl)cc1)c1ccc(Cl)cc1)c1ccccc1
inactive: dose: 100.0 mg/kg/injection, schedule: Q01DX009 (ip), vehicle: carboxymethylcellulose (CMC) 98 % of control | dose: 100.0 mg/kg/injection, schedule: Q04DX002 (ip), vehicle: carboxymethylcellulose (CMC) 101 % of control and 92 % of control | dose: 100.0 mg/kg/injection, schedule: Q04DX003 (ip), vehicle: carboxymethylcellulose (CMC) 106 % of control | dose: 200.0 mg/kg/injection, schedule: Q01DX009 (ip), vehicle: carboxymethylcellulose (CMC) 95 % of control and 92 % of control | dose: 200.0 mg/kg/injection, schedule: Q04DX002 (ip), vehicle: carboxymethylcellulose (CMC) 102 % of control and 111 % of control | dose: 200.0 mg/kg/injection, schedule: Q04DX003 (ip), vehicle: carboxymethylcellulose (CMC) 93 % of control | dose: 400.0 mg/kg/injection, schedule: Q01DX009 (ip), vehicle: carboxymethylcellulose (CMC) 95 % of control and 101 % of control | dose: 400.0 mg/kg/injection, schedule: Q04DX002 (ip), vehicle: carboxymethylcellulose (CMC) 95 % of control and 101 % of control | dose: 400.0 mg/kg/injection, schedule: Q04DX003 (ip), vehicle: carboxymethylcellulose (CMC) 93 % of control

CCCCCCC(O)C(=O)O (configuration not stated)
inactive: [23] 102 % of control | [24] 102 % of control

CN(C)C1CCC(/C=C(\C#N)C2CCC([N+](=O)[O-])CC2)CC1 (configuration not stated)
inactive: [1] 109 % of control | dose: 50.0 mg/kg/injection, schedule: Q01DX009 (ip), vehicle: Klucel (hydroxypropylcellulose) (HPC) 106 % of control | [2] 95 % of control | [3] 106 % of control | [8] 95 % of control | [5] 102 % of control | [9] 95 % of control and 100 % of control | [10] 103 % of control

C=C(Cl)CSC(=N)N
inactive: dose: 10.0 mg/kg/injection, schedule: Q01DX009 (ip), vehicle: saline 109 % of control | dose: 12.0 mg/kg/injection, schedule: Q01DX009 (ip), vehicle: Klucel (hydroxypropylcellulose) (HPC) 88 % of control | dose: 20.0 mg/kg/injection, schedule: Q01DX009 (ip), vehicle: saline 101 % of control | dose: 25.0 mg/kg/injection, schedule: Q01DX009 (ip), vehicle: Klucel (hydroxypropylcellulose) (HPC) 103 % of control | [4] 108 % of control | [6] 106 % of control | [7] 104 % of control

O=C(O)c1ccc(N/N=C\c2cc(=O)[nH]c(=O)[nH]2)cc1
inactive: dose: 5.0 mg/kg/injection, schedule: Q01DX001 (ip), vehicle: saline 97 % of control | dose: 10.0 mg/kg/injection, schedule: Q01DX001 (ip), vehicle: saline 97 % of control | dose: 20.0 mg/kg/injection, schedule: Q01DX001 (ip), vehicle: saline 98 % of control | dose: 40.0 mg/kg/injection, schedule: Q01DX001 (ip), vehicle: saline 97 % of control

CC1(C2CC2)NC(=O)NC1=O (configuration not stated)
inactive: dose: 100.0 mg/kg/injection, schedule: Q01DX009 (ip), vehicle: saline 97 % of control | [4] 92 % of control | dose: 200.0 mg/kg/injection, schedule: Q01DX009 (ip), vehicle: saline 89 % of control | [6] 97 % of control | dose: 400.0 mg/kg/injection, schedule: Q01DX009 (ip), vehicle: saline 95 % of control | [7] 95 % of control

CCCCCS(=O)(=O)N(CC)CC
inactive: [23] 96 % of control | [24] 96 % of control | dose: 400.0 mg/kg/injection, schedule: Q04DX002 (ip), vehicle: saline with Tween-80 89 % of control

CCCC(Cl)C(=O)Nc1cccc(O)c1 (configuration not stated)
inactive: [11] 91 % of control | [12] 91 % of control

O=P(O)(O)Cc1cccc2ccccc12
inactive: [25] 92 % of control | [16] 96 % of control | [26] 89 % of control | [18] 96 % of control | dose: 400.0 mg/kg/injection, schedule: Q04DX003 (ip), vehicle: saline with Tween-80 96 % of control

O=c1[nH]ccc2c(O)cccc12
inactive: dose: 50.0 mg/kg/injection, schedule: Q01DX009 (ip), vehicle: saline with Tween-80 95 % of control | [14] 101 % of control | [11] 97 % of control | [16] 101 % of control | [12] 90 % of control | [18] 94 % of control

COc1ccc2c3c1O[C@H]1C(O)C=C[C@H]4[C@@H](C2)N(C)CC[C@]314 (some centres not stated)
inactive: [15] 95 % of control | [17] 95 % of control

CCN(C(=O)/C=C/c1ccccc1)C1CCCCC1
inactive: [3] 94 % of control | [25] 102 % of control | [5] 102 % of control | [26] 96 % of control | dose: 400.0 mg/kg/injection, schedule: Q01DX009 (ip), vehicle: Klucel (hydroxypropylcellulose) (HPC) 86 % of control | dose: 400.0 mg/kg/injection, schedule: Q04DX003 (ip), vehicle: Klucel (hydroxypropylcellulose) (HPC) 105 % of control

N=C(N)c1ccc(-c2cc(-c3ccc(C(=N)N)cc3)on2)cc1
inactive: dose: 6.25 mg/kg/injection, schedule: Q04DX003 (ip), vehicle: saline 100 % of control | dose: 12.5 mg/kg/injection, schedule: Q04DX003 (ip), vehicle: saline 103 % of control | dose: 25.0 mg/kg/injection, schedule: Q04DX003 (ip), vehicle: saline 108 % of control

COc1ccc(CCN)cc1OC
inactive: [20] 106 % of control | [21] 100 % of control | [22] 100 % of control

NC(=O)C(c1ccccc1)C(O)c1ccccc1 (configuration not stated)
inactive: dose: 50.0 mg/kg/injection, schedule: Q01DX001 (ip), vehicle: saline 101 % of control | [15] 95 % of control | [17] 97 % of control | [19] 101 % of control

CC(=O)OCC(OC(C)=O)C(OC(C)=O)C(Cn1c(=O)cc(C)c2ccc(C)c(C)c21)OC(C)=O (configuration not stated)
inactive: [15] 88 % of control | [17] 93 % of control | [19] 88 % of control
